Data set [1] concerns Acinetobacter baumannii. Put plainly: Antibacterial activity against Acinetobacter baumannii infected in mouse assessed as log reduction in viable bacterial count at 30 mg/kg measured for 12 hrs. The class given is functional.
Data set [2] concerns Acinetobacter baumannii. Kind of data set: Antibiofilm activity against Acinetobacter baumannii assessed as biofilm eradication at 0.016 mmol/L incubated for 24 hrs by crystal violet staining based analysis relative to control. It is filed as functional.
Data set [3] has as its system Acinetobacter baumannii. Kind of data set: Antibacterial activity against Acinetobacter baumannii assessed as bacterial growth inhibition incubated for 24 hrs by broth microdilution method. It is filed as functional. On the technique in general: Broth dilution looks for growth in wells or tubes with falling amounts of substance.
Data set [4] in a line: Cytotoxicity against human L02 cells assessed as cell viability at effective concentration measured after 24 hrs by MTT assay relative to control. It is filed as toxicity, cell-based. Conditions: read-out: Activity.
The subject of data set [5] is Calf thymus DNA. Put plainly: Induction of calf thymus DNA cleavage at 0.05 mmol/L incubated for 6 hrs in presence of Zn(NO3)2 by agarose gel electrophoresis method. It is filed as nucleic-acid assay. The following applies: Bos taurus.
Data set [6] concerns Pseudomonas aeruginosa. Kind of data set: Antibacterial activity against Pseudomonas aeruginosa ATCC 27853 assessed as bacterial growth inhibition incubated for 24 hrs by broth microdilution method. The class given is functional.
Data set [7] concerns Calf thymus DNA. Kind of data set: Binding affinity to calf thymus DNA assessed as binding constant, K by absorbance based assay. The class given is nucleic-acid assay. Conditions: Bos taurus.
Data set [8] has as its system Calf thymus DNA. Kind of data set: Induction of calf thymus DNA cleavage at 0.05 mmol/L incubated for 6 hrs by agarose gel electrophoresis method. It is filed as nucleic-acid assay. The following applies: Bos taurus.
Data set [9] in a line: Cytotoxicity against HEK293T cells assessed as cell viability at 0.256 mmol/L measured after 24 hrs by MTT assay relative to control. It is filed as toxicity, cell-based, HEK-293T. The following applies: human, read-out: Activity. A general note: Tetrazolium dyes change colour on reduction, which living cells bring about.
The nature of data set [10]: AUMC (0 to infinity) in Kunming mouse at 10 mg/kg, po measured upto 24 hrs by LC-MS analysis. The class given is ADME, organism-based. The following applies: in vivo.
The next data set concerns Erythrocyte. Kind of data set: Hemolytic activity in human RBC at greater than MIC measured for 2 to 4 hrs by absorbance based assay. It is filed as toxicity, cell-based. The following applies: time 2-4 hrs.
Data set [11] in a line: MRT (0 to infinity) in Kunming mouse at 10 mg/kg, iv measured upto 24 hrs by LC-MS analysis. It is filed as ADME, organism-based. Conditions: in vivo.
Data set [12] deals with Pseudomonas aeruginosa. Kind of data set: Antibacterial activity against Pseudomonas aeruginosa assessed as bacterial growth inhibition incubated for 24 hrs by broth microdilution method. It is filed as functional.

Structures are written as SMILES. ≈ marks a conversion by molar mass, not a printed value. Calls of active or inactive are those of the source. No cut-off for these calls is given here.

What is called MIC is the lowest concentration found to suppress growth. For orientation: MRT inf means a mean duration of stay, worked out from the concentration-time curve. In the case of `OCCN(CCO)c1nccc(-n2cncn2)n1`, in the data set with Acinetobacter baumannii [1], the “log(activity)” value is 3.5. Further, the Activity is 39.1% in the data set with Acinetobacter baumannii [2] and “Non-Toxic” with Erythrocyte. In addition, the MIC with Acinetobacter baumannii [3] worked out at 2 µM (≈ 0.501 µg/mL); in the data set with Pseudomonas aeruginosa [6] it was 512 µM (≈ 128 µg/mL); with Pseudomonas aeruginosa [12], 1 µM (≈ 0.25 µg/mL). The viability at 24 h in data set [4] is > 75%. In addition, the result in the data set on Calf thymus DNA [5] and in the data set on Calf thymus DNA [8] was inactive. In the data set with Calf thymus DNA [7], the K is 1.7 10^3L/mol. Besides, the viability at 24 h, 256 µM in data set [9] came out at 80%. Moreover, in data set [10], the AUMC is recorded as 37723 hr.hr.ng/ml. In addition, in data set [11], the mean residence time (MRT inf) was determined as 3.98 h.

The values are drawn from ChEMBL document CHEMBL5380831, “Azolylpyrimidinediols as Novel Structural Scaffolds of DNA-Groove Binders against Intractable Acinetobacter baumannii” (J Med Chem, 2023).
